Broadly, the IC50 is the concentration at which inhibition is half-maximal.

Data on 16 compounds can be found in patent publication US10508085B2, “Compounds and methods for IDO and TDO modulation, and indications therefor” (Plexxikon Inc., priority 2016, dated 2019).

The target of test [1] is T1, Human Indoleamine 2,3-dioxygenase (IDO) (Homo sapiens, UniProt P14902).
T1 construct: His tag (N); made in house; host or cells: E. coli
Briefly: Human IDO enzymatic assay (kynurenine level). It counts as biochemical. As to conditions: 6 nM IDO, 10 μM L-Trp; geometric mean; read-out: IDO1 GMean: IC50 (μM) (Biochemical Assay). The method in brief: (§1)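 Kynurenine formed is measured after TCA quench and 50 °C hydrolysis, with % inhibition against full-reaction and no-enzyme controls (5% DMSO). IDO: 6 nM enzyme, 10 μM L-Trp, 5 μM methylene blue, 20 min; TDO: 1 nM, 350 μM L-Trp, 0.4 μM methylene blue, 70 min; both pH 6.5, room temp, E. coli-expressed His-tagged.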

The target of test [2] is T2, Human Tryptophan 2,3-dioxygenase (TDO) (Homo sapiens, UniProt P48775).
T2 construct: His tag (N); made in house; host or cells: E. coli
Briefly: Human TDO enzymatic assay (kynurenine level). It counts as biochemical. As to conditions: 1 nM TDO, 350 μM L-Trp; geometric mean; read-out: TDO GMean: IC50 (μM) (Biochemical Assay). Put shortly:
as §1

Test [3] has as its target T3, human IDO (IDO1-expressing HEK293 cells) (Homo sapiens, UniProt P14902).
T3 construct: expressed in transfected cells
Briefly: Cell based kynurenine assay, IDO1-expressing HEK293 cell clones. Conditions: IDO1-expressing HEK293 cells, 24 hours, geometric mean; read-out: HEK293 IDO1 Kynurenine GMean IC50 (μM) (Cellular Assay). Put shortly: (§2)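 Kynurenine in culture supernatant read after 24 h compound exposure of HEK293 cells stably expressing human IDO1 or TDO. IC50 from nonlinear regression of % inhibition relative to 0.2% DMSO cell (high) and media-only (low) controls.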

The target in test [4] is T4, human TDO (TDO-expressing HEK293 cells) (Homo sapiens, UniProt P48775).
T4 construct: expressed in transfected cells
Briefly: Cell based kynurenine assay, TDO-expressing HEK293 cell clones. As to conditions: TDO-expressing HEK293 cells, 24 hours, geometric mean; read-out: HEK293 TDO Kynurenine GMean IC50 (μM) (Cellular Assay). The method in brief: as §2

T2 sequence (P48775 whole entry): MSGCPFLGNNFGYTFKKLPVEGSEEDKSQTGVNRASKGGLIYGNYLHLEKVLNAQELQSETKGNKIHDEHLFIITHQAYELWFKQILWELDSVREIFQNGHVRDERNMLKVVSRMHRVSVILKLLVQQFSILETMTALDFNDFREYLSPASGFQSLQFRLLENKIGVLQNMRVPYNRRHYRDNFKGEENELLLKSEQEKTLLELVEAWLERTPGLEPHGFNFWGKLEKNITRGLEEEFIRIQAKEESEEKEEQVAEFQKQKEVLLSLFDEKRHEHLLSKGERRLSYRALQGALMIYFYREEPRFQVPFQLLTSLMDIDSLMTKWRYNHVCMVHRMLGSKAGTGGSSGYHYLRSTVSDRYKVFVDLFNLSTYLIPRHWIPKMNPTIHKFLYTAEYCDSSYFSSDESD
T4 sequence (P48775 whole entry): as above
T1 sequence (P14902 whole entry): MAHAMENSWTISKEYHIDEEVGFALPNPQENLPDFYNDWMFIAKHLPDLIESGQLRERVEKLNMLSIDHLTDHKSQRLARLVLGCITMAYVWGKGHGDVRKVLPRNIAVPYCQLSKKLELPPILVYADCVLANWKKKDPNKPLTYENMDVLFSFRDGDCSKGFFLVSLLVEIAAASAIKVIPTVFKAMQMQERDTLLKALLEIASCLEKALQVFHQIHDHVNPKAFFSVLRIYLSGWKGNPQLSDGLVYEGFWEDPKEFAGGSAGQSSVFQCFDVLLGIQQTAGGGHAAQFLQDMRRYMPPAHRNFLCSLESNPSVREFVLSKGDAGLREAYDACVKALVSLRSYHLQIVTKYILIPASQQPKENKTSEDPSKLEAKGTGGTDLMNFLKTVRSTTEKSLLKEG
T3 sequence (P14902 whole entry): as above

For the compound `CC(C)(C(O)c1cc(Cl)cc2cn[nH]c12)[C@H]1C[C@H]2CC[C@@H](C1)N2C(=O)Nc1ccc(F)cc1` (stereo partly drawn) [Compound P-0440, (1R,3r,5S)-3-(1-(5-chloro-1H-indazol-7-yl)-1-hydroxy-2-methylpropan-2-yl)-N-(4-fluorophenyl)-8-azabicyclo[3.2.1] octane-8-carboxamide], the IC50 in test [1], in test [2], in test [3] and in test [4] was 0.0001 to 10 µM throughout.

On to `CC(C)(C1CCN(C(=O)CN2CCOCC2)CC1)C(O)c1cc(Cl)cc2cn[nH]c12` (stereo not shown) [Compound P-0441, 1-(4-(1-(5-chloro-1H-indazol-7-yl)-1-hydroxy-2-methylpropan-2-yl)piperidin-1-yl)-2-morpholinoethan-1-one], for which the IC50 in test [1], in test [2], in test [3] and in test [4] was 0.0001 to 10 µM in each case.

For `CNC(=O)N1[C@@H]2CC[C@H]1C[C@@H](C(C)(C)C(O)c1cc(Cl)cc3cn[nH]c13)C2` (stereo partly drawn) [Compound P-0442, (1R,3r,5S)-3-(1-(5-chloro-1H-indazol-7-yl)-1-hydroxy-2-methylpropan-2-yl)-N-methyl-8-azabicyclo[3.2.1] octane-8-carboxamide], the IC50 in test [1], in test [2], in test [3] and in test [4] was 0.0001 to 10 µM each time.

Regarding `CC(C)(C1CCN(C(=O)CC2CCOCC2)CC1)C(O)c1cc(Cl)cc2cn[nH]c12` (stereo not shown) [Compound P-0443, 1-(4-(1-(5-chloro-1H-indazol-7-yl)-1-hydroxy-2-methylpropan-2-yl)piperidin-1-yl)-2-(tetrahydro-2H-pyran-4-yl)ethan-1-one], the IC50 in test [1], in test [2], in test [3] and in test [4] was 0.0001 to 10 µM each time.

As to `CCC(=O)N1CCC(C(C)(C)[C@H](O)c2cc(Cl)cc3cn[nH]c23)CC1` [Compound P-0444, (S)-1-(4-(1-(5-chloro-1H-indazol-7-yl)-1-hydroxy-2-methylpropan-2-yl)piperidin-1-yl)propan-l-one], the IC50 in test [1], in test [2], in test [3] and in test [4] was 0.0001 to 10 µM throughout.

Regarding `CNC(=O)N1CCC(C(C)(C)[C@H](O)c2cc(Cl)cc3cn[nH]c23)CC1` [Compound P-0445, (S)-4-(1-(5-chloro-1H-indazol-7-yl)-1-hydroxy-2-methylpropan-2-yl)-N-methylpiperidine-1-carboxamide], the IC50 in test [1], in test [2], in test [3] and in test [4] was 0.0001 to 10 µM in each case.

As to `COCCNC(=O)N1CCC(C(C)(C)[C@H](O)c2cc(Cl)cc3cn[nH]c23)CC1` [Compound P-0446, (S)-4-(1-(5-chloro-1H-indazol-7-yl)-1-hydroxy-2-methylpropan-2-yl)-N-(2-methoxyethyl) piperidine-1-carboxamide], the IC50 in test [1], in test [2], in test [3] and in test [4] was 0.0001 to 10 µM throughout.

`CC(C)(C1CCN(C(=O)Nc2ccc(C#N)cc2)CC1)[C@H](O)c1cc(Cl)cc2cn[nH]c12` [Compound P-0447, (S)-4-(1-(5-chloro-1H-indazol-7-yl)-1-hydroxy-2-methylpropan-2-yl)-N-(4-cyanophenyl) piperidine-1-carboxamide]: the IC50 in test [1], in test [2], in test [3] and in test [4] was 0.0001 to 10 µM each time.

Turning to `CC(C)(C1CCN(C(=O)CC2CCS(=O)(=O)CC2)CC1)C(O)c1cc(Cl)cc2cn[nH]c12` (stereo not drawn) [Compound P-0448, 1-(4-(1-(5-chloro-1H-indazol-7-yl)-1-hydroxy-2-methylpropan-2-yl)piperidin-l-yl)-2-(1,1-dioxidotetrahydro-2H-thiopyran-4-yl)ethan-1-one], the half-maximal inhibitory concentration (IC50) in test [1], in test [2], in test [3] and in test [4] was 0.0001 to 10 µM each time.

As to `CC(C)(C1CCN(C(=O)N[C@H]2CC[C@H](C)CC2)CC1)C(O)c1cc(Cl)cc2cn[nH]c12` (stereo partly shown) [Compound P-0449, 4-(1-(5-chloro-1H-indazol-7-yl)-1-hydroxy-2-methylpropan-2-yl)-N-((1r,4r)-4-methylcyclohexyl) piperidine-1-carboxamide], the IC50 in test [1], in test [2], in test [3] and in test [4] was 0.0001 to 10 µM throughout.

In the case of `CC(C)(C1CCN(C(=O)NC2CCN(S(C)(=O)=O)CC2)CC1)C(O)c1cc(Cl)cc2cn[nH]c12` (stereo not shown) [Compound P-0450, 4-(1-(5-chloro-1H-indazol-7-yl)-1-hydroxy-2-methylpropan-2-yl)-N-(1-(methylsulfonyl)piperidin-4-yl)piperidine-1-carboxamide], the IC50 in test [1], in test [2], in test [3] and in test [4] was 0.0001 to 10 µM in each case.

As to `CC(C)(C1CCN(C(=O)NC2CCOCC2)CC1)C(O)c1cc(Cl)cc2cn[nH]c12` (stereo not shown) [Compound P-0451, 4-(1-(5-chloro-1H-indazol-7-yl)-1-hydroxy-2-methylpropan-2-yl)-N-(tetrahydro-2H-pyran-4-yl)piperidine-1-carboxamide], the concentration for half-maximal inhibition (IC50) in test [1], in test [2], in test [3] and in test [4] was 0.0001 to 10 µM each time.

On to `CC(C)(C1CCN(C(=O)NCCS(C)(=O)=O)CC1)C(O)c1cc(Cl)cc2cn[nH]c12` (stereo not shown) [Compound P-0452, 4-(1-(5-chloro-1H-indazol-7-yl)-1-hydroxy-2-methylpropan-2-yl)-N-(2-(methylsulfonyl)ethyl)piperidine-1-carboxamide], for which the IC50 in test [1], in test [2], in test [3] and in test [4] was 0.0001 to 10 µM each time.

As to `CC(C)(C1CCN(C(=O)NC2CCNCC2)CC1)C(O)c1cc(Cl)cc2cn[nH]c12` (stereo not shown) [Compound P-0453, 4-(1-(5-chloro-1H-indazol-7-yl)-1-hydroxy-2-methylpropan-2-yl)-N-(piperidin-4-yl)piperidine-1-carboxamide], the IC50 was 0.0001 to 10 µM in test [1], 0.0001 to 10 µM in test [2], above 10 µM in test [3] and above 10 µM in test [4].

On to `CC(C)(C1CCN(C(=O)CC#N)CC1)C(O)c1cc(Cl)cc2cn[nH]c12` (stereo not shown) [Compound P-0454, 3-(4-(1-(5-chloro-1H-indazol-7-yl)-1-hydroxy-2-methylpropan-2-yl)piperidin-1-yl)-3-oxopropanenitrile], for which the IC50 in test [1], in test [2], in test [3] and in test [4] was 0.0001 to 10 µM each time.

On to `CN(C)CC(=O)N1CCC(C(C)(C)C(O)c2cc(Cl)cc3cn[nH]c23)CC1` (stereo not shown) [Compound P-0455, 1-(4-(1-(5-chloro-1H-indazol-7-yl)-1-hydroxy-2-methylpropan-2-yl)piperidin-1-yl)-2-(dimethylamino) ethan-1-one], for which the IC50 in test [1], in test [2], in test [3] and in test [4] was 0.0001 to 10 µM each time.
